Patent publication US20210308089A1, “METHODS OF TREATING AND/OR PREVENTING VIRAL INFECTIONS AND/OR DISEASES CAUSED BY VIRUSES IN A SUBJECT IN NEED THEREOF” (priority 2020, published 2021)

Tested on: hs-CRP, D-dimer, ESR, blood counts, NLR, systemic immune-inflammation index
Assay: VASCEPA-COVID-19: inflammatory biomarkers, baseline to day 14 follow-up, IPE vs usual care
Format: in vivo, human
Method: This was a 14-day long, prospective, multi-site, two-armed, randomized, open-label study of approximately 100 individuals in Canada with a COVID-19-positive diagnosis or who have recently undergone testing for SARS-CoV-2. […] Blood samples are collected to determine if IPE use lowers circulating pro-inflammatory biomarkers.
Eligible patients were randomly allocated to the IPE group or the usual care group. Randomization was performed using envelope randomization via stratification using random permuted blocks. Patients allocated to the IPE group received a loading dose of 4 g IPE twice daily for 3 days followed by 2 g twice daily for 11 days. The usual care group received no intervention. Participant characteristics were obtained at baseline, while blood samples and clinical outcomes were obtained/measured at baseline and at follow-up.
The primary biomarker endpoint was the change in high-sensitivity C-reactive protein (hs-CRP) levels from baseline (day 1) to follow-up (day 14+3) within-groups. D-dimer, erythrocyte sedimentation rate (ESR), complete blood count, differential count, serum albumin levels, the neutrophil-to-lymphocyte ratio (NLR), and the systemic immune-inflammation index (defined by platelet count multiplied by NLR) from baseline to follow-up were secondary biomarker endpoints. The clinical endpoint was the change in InFLUenza Patient-Reported Outcome (FLU-PRO©) diary scores (total and domain breakdown). The FLU-PRO© score is designed to evaluate the presence, severity, and duration of influenza symptoms in clinical trials and standardize symptom assessment with respect to viral infections. The diary provides a comprehensive evaluation of symptomology over 32 distinct questions. Respondents answer on an ordinal scale from 0-4 across six domains: Body/Systemic, Chest/Respiratory, Eyes, Gastrointestinal, Nose, and Throat. The validity and reliability of the FLU-PRO© diary has been investigated. The ability to successfully adapt the measure for COVID-19 experimentation has also been explained (www.evidera.com/flu-pro/). […] Additional clinical endpoints included measuring FLU-PRO© symptom prevalence and investigating correlations between improvements in FLU-PRO© and decreases in hs-CRP levels.
Baseline characteristics, biomarkers, and clinical endpoints were described as frequencies and percentages (for categorical data) or medians with interquartile ranges (for continuous variables). Cohort comparisons were performed with the Wilcoxon Signed Rank (within-group), Mann-Whitney U (between group, continuous variables) or Fisher's Exact (between group, categorical variables) statistical tests. Within- and between-group p-values describing clinical (FLU-PRO©) score changes were conducted using a Wald test on least squares-mean estimated treatment difference, from an analysis of variance (ANOVA) model. Within- and between-group comparisons for the primary biomarker endpoint included median change from baseline. hs-CRP analyses were conducted with unadjusted and adjusted data (for sex, age [men <45 versus ≥45 years and women <55 versus ≥55 years], and baseline cardiovascular risk [absence or presence of cardiovascular comorbidities]). The model adjustments for baseline covariates were warranted based on current literature. Remaining unadjusted secondary biomarker data were evaluated via two-tailed within-group Wilcoxon Signed Rank Tests and between-group Mann-Whitney Tests. The prevalence and change from baseline total and individual domain FLU-PRO© scores were calculated as measures of alterations in symptom severity. Correlations between FLU-PRO© score improvement and hs-CRP reduction were calculated using the Spearman correlation coefficient. A p-value of less than 0.05 was considered significant without multiplicity adjustment, and all analyses were conducted using a modified intention-to-treat model.

[1] = 14 + 3 Days, n = 44, within-group P 0.07
[2] = 14 + 3 Days, n = 44, within-group P <0.01

CC/C=C\C/C=C\C/C=C\C/C=C\C/C=C\CCCC(=O)OCC [icosapent ethyl, eicosapentaenoic acid ethyl ester]
hs-CRP median, 14 + 3 Days (14 + 3 Days, n = 44, IQR 0.6, 4.4): 1.6 mg/L | SII (systemic immune-inflammation index, median), 14 + 3 Days (14 + 3 Days, n = 44, product of NLR*platelets, within-group P <0.01): 4.319e+11 L⁻¹ | WBC Differential, Lymphocytes (median), 14 + 3 Days (14 + 3 Days, n = 44, within-group P 0.01): 2.4e+09 L⁻¹ | MCV (median), 14 + 3 Days (14 + 3 Days, n = 44, within-group P 0.03): 87.5 fL | NLR (neutrophil-lymphocyte ratio, median), 14 + 3 Days [1]: 1.6 | WBC Differential, Basophils (median), 14 + 3 Days [1]: 0 L⁻¹ | WBC Differential, Eosinophils (median), 14 + 3 Days [1]: 1e+08 L⁻¹ | WBC Differential, Monocytes (median), 14 + 3 Days (14 + 3 Days, n = 44, within-group P 0.08): 6e+08 L⁻¹ | RDW (median), 14 + 3 Days (14 + 3 Days, n = 44, within-group P 0.14): 12.5 % CV | eGFR (median), 14 + 3 Days (14 + 3 Days, n = 44, within-group P 0.17): 87.0 mL/min/1.73 m^2 | Lipid Assessment, Triglycerides (median), 14 + 3 Days (14 + 3 Days, n = 44, within-group P 0.19): 1.5 mmol/L | ESR (median), 14 + 3 Days (14 + 3 Days, n = 44, within-group P 0.20): 15.5 mm/hr | Creatinine (median), 14 + 3 Days (14 + 3 Days, n = 44, within-group P 0.21): 73.5 µmol/L | MCHC (median), 14 + 3 Days (14 + 3 Days, n = 44, within-group P 0.22): 339.5 g/L | MCH (median), 14 + 3 Days (14 + 3 Days, n = 44, within-group P 0.40): 29.4 pg | Albumin (median), 14 + 3 Days (14 + 3 Days, n = 44, within-group P 0.88): 43.0 g/L | HbA1C (median), 14 + 3 Days [2]: 5.1% | Hematocrit (median), 14 + 3 Days [2]: 0.4 L/L | Hemoglobin (median), 14 + 3 Days [2]: 130.5 g/L | Lipid Assessment, HDL-C (median), 14 + 3 Days [2]: 1.2 mmol/L | Lipid Assessment, LDL-C (median), 14 + 3 Days [2]: 2.5 mmol/L | Lipid Assessment, Non-HDL-C (median), 14 + 3 Days [2]: 3.3 mmol/L | Lipid Assessment, Total Cholesterol (median), 14 + 3 Days [2]: 4.7 mmol/L | Platelet (median), 14 + 3 Days [2]: 2.615e+11 L⁻¹ | RBC Count (median), 14 + 3 Days [2]: 4.7e+12 L⁻¹ | WBC Count (median), 14 + 3 Days [2]: 7.3e+09 L⁻¹ | WBC Differential, Neutrophils (median), 14 + 3 Days [2]: 3.9e+09 L⁻¹ | Albumin (median), Baseline (Baseline, n = 44): 44.0 g/L | Creatinine (median), Baseline (Baseline, n = 44): 74.0 µmol/L | D-dimer (median), Baseline (Baseline, n = 44): 324.0 µg/L | ESR (median), Baseline (Baseline, n = 44): 18.0 mm/hr | Erythrocyte Sedimentation Rate (median), Baseline (Baseline, n = 44): 18.0 mm/hour | HbA1C (median), Baseline (Baseline, n = 44): 5.2% | Hematocrit (median), Baseline (Baseline, n = 44): 0.4 L/L | Hemoglobin (median), Baseline (Baseline, n = 44): 139.5 g/L | Lipid Assessment, HDL-C (median), Baseline (Baseline, n = 44): 1.1 mmol/L | Lipid Assessment, LDL-C (median), Baseline (Baseline, n = 44): 2.2 mmol/L | Lipid Assessment, Non-HDL-C (median), Baseline (Baseline, n = 44): 3.2 mmol/L | Lipid Assessment, Total Cholesterol (median), Baseline (Baseline, n = 44): 4.3 mmol/L | Lipid Assessment, Triglycerides (median), Baseline (Baseline, n = 44): 1.4 mmol/L | MCH (median), Baseline (Baseline, n = 44): 30.0 pg | MCHC (median), Baseline (Baseline, n = 44): 338.0 g/L | MCV (median), Baseline (Baseline, n = 44): 86.5 fL | NLR (neutrophil-lymphocyte ratio, median), Baseline (Baseline, n = 44): 1.7 | Platelet (median), Baseline (Baseline, n = 44): 2.27e+11 L⁻¹ | RBC Count (median), Baseline (Baseline, n = 44): 4.9e+12 L⁻¹ | RDW (median), Baseline (Baseline, n = 44): 12.3 % CV | WBC Count (median), Baseline (Baseline, n = 44): 6.1e+09 L⁻¹ | WBC Differential, Basophils (median), Baseline (Baseline, n = 44): 0 L⁻¹ | WBC Differential, Eosinophils (median), Baseline (Baseline, n = 44): 1e+08 L⁻¹ | WBC Differential, Lymphocytes (median), Baseline (Baseline, n = 44): 1.9e+09 L⁻¹ | WBC Differential, Monocytes (median), Baseline (Baseline, n = 44): 5e+08 L⁻¹ | WBC Differential, Neutrophils (median), Baseline (Baseline, n = 44): 3e+09 L⁻¹ | eGFR (median), Baseline (Baseline, n = 44): 86.0 mL/min/1.73 m^2 | hs-CRP median, Baseline (Baseline, n = 44, IQR 0.9, 11.6): 3.2 mg/L | SII (systemic immune-inflammation index, median), Baseline (Baseline, n = 44, product of NLR*platelets): 3.398e+11 L⁻¹ | D-dimer (median), Day 14 + 3 (Day 14 + 3, n = 44, within-group P 0.048): 286.5 µg/L | Erythrocyte Sedimentation Rate (median), Day 14 + 3 (Day 14 + 3, n = 44, within-group P 0.20): 15.5 mm/hour | Median hs-CRP change at follow-up (baseline (day 1) to day 14+3, 8 g/day for 3 days, then 4 g/day for 11 days): -0.5 mg/L | hs-CRP Median Change from Baseline (baseline to day 14 + 3, n = 44, IQR −6.9, 0.4, within-group P 0.011, between-group P 0.082 unadjusted, 0.043 adjusted): -0.5 mg/L | hs-CRP Median Percent Change from Baseline (baseline to day 14 + 3, n = 44, IQR −80.1, 26.7): −25.0% | hs-CRP reduction from baseline levels (baseline to day 14+3, within IPE group): 25%
